Results taken from patent publication US5221606A, “Reagent and kit for enzyme assay comprising a substrate consonant with given enzyme to be assayed” (King's College London, priority 1987, dated 1993).
Each block holds one molecule with its values, some of them ahead of it.

How the values were obtained:
[1] = test system: esterases; assay: substrate test with esterases; format: biochemical
[2] = solubility in water or aqueous buffer
[3] = test system: lipases; assay: substrate test with lipases; format: biochemical
[4] = test system: carboxyesterase; assay: substrate test with carboxyesterase; format: biochemical
Description: The serum samples were diluted by a factor of 10 prior to the assay. The substrate solution and the diluted sera were then preincubated at 37° C. in a water bath. Aliquots (0.75 ml) of the substrate solution were then pipetted into small plastic tubes (2 ml capacity), and 0.05 ml samples of the sera were added to each of the substrate aliquots and shaken vigorously to ensure adequate mixing. A blank was run by substituting water (0.05 ml) for the serum. The reaction was stopped after 10 min by the addition of the stopping buffer (0.25 ml) [prepared by dissolving DABCO (22.4 g) in water (200 ml) and adjusting the pH to 10 by the addition of a little conc. hydrochloric acid. The resulting mixture was then made up to 1000 ml with acetone]. […] [formula] where t=time of incubation in hours
Otherwise it was carried out in exactly the same ways as above

[5] = stability on storage; format: physicochemical; conditions: potassium salt compared with free acid

solubility ([2]; water): < 250 µM
Compound: COc1cc(/C=C/c2cc[n+](C)c3ccccc23)cc(OC)c1OC(=O)c1ccccc1 [24e, 4-[2(4-Benzoyloxy-3,5-dimethoxyphenyl)-vinyl]-1-methylquinolinium iodide]
activity as substrate for esterases [1]: substrate for esterases

activity as substrate for lipase [3]: good substrate
Compound: CCCCCCCCCC(=O)Oc1c(OC)cc(C=C2SC(=S)N(CC(=O)O)C2=O)cc1OC [11d, n=8]

activity as substrate for lipase [3]: exhibited enzymatic activity
Compound: CCCCCCCCC(=O)Oc1c(OC)cc(C=C2SC(=S)N(c3ccc(C(=O)O)cc3)C2=O)cc1OC [Nonanoate]

quality as substrate for / cleavage by carboxyesterase [4]: readily cleaved
stability on standing [5]: slowly decomposed on standing
solubility in alkaline buffers ([2]; alkaline buffers (pH 8 etc.)): readily dissolved
solubility ([2]; water or aqueous buffer, aqueous buffer): > 2000 µM
Compound: CCCC(=O)Oc1c(OC)cc(C=C2SC(=S)N(CC(=O)O)C2=O)cc1OC [11d, n=2, 5-(Butanoyloxy-3,5-dimethoxyphenylmethylene)-2-thioxothiazolidin-4-one-3-ethanoic acid]
